{
  "source": "PubChem BioAssay (NCI)",
  "note": "Values joined by “and” are separate entries in the source; they are usually repeats but may differ in a detail not shown here. Equal entries are not always repeated.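 These data come from cells grown in 96-well plates and exposed to compound for 48 hours at five concentrations. GI50 marks 50% less growth. TGI denotes the concentration required for complete inhibition of growth.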",
  "data": [
    {"tested_on": "BT-549 breast", "assay": "NCI anticancer screen, dose series, 48 h", "units": {"TGI": "µM"}, "values": [
      {"smiles": "COC1N(C2CC(O)C(CO)O2)C(=O)NC(=O)C1(F)Br", "note": "(configuration not stated)", "TGI": "> 100"},
      {"smiles": "O=C1/C(=C\\c2ccccc2)CN(C(=O)CCN2CCCCC2)C/C1=C/c1ccccc1", "TGI": 1.94},
      {"smiles": "CC1=C(C(=O)Nc2ccccc2)C(c2ccc(N(C)C)cc2)C(C(=O)Nc2ccccc2)=C(C)N1", "TGI": "> 88.3"}
    ]},
    {"tested_on": "NCI-H23 lung", "assay": "NCI anticancer screen, dose series, 48 h", "units": {"GI50": "µM"}, "values": [
      {"smiles": "O=C1[C@@H]2C(c3c(Cl)cccc3Cl)=NO[C@@H]2C(=O)N1c1ccc(Cc2ccc(N3C(=O)[C@H]4C(c5c(Cl)cccc5Cl)=NO[C@H]4C3=O)cc2)cc1", "TGI": "> 100 µM"},
      {"smiles": "COC1N(C2CC(O)C(CO)O2)C(=O)NC(=O)C1(F)Br", "note": "(configuration not stated)", "GI50": 13.3, "TGI": "50 µM and > 100 µM"},
      {"smiles": "COC(=O)C1C(C(=O)OC)C2C(=O)C3C(C(=O)OC)C(C(=O)OC)C3C(=O)C12", "note": "(configuration not stated)", "TGI": "> 100 µM"},
      {"smiles": "O=C(NC12CC3CCC1CC(C3)C2)[C@@H]1CCCN1C(=O)OCc1ccccc1", "note": "(some centres not stated)", "TGI": "> 100 µM"},
      {"smiles": "O=[N+]([O-])c1cccc(C2=NN(c3ccccc3)C3c4cc(Br)ccc4OCC23)c1", "note": "(configuration not stated)", "TGI": "> 100 µM"},
      {"smiles": "C[C@]12Cc3cn[nH]c3C(=O)C1CC[C@@H]1C2CC[C@@]2(C)C1CC[C@@H]2O", "note": "(some centres not stated)", "TGI": "> 100 µM"},
      {"smiles": "NNC(=O)C(=O)N/N=C1/CCCC1C(=O)CCC(=O)Nc1ccc(Cl)cc1", "note": "(configuration not stated)", "TGI": "> 100 µM"},
      {"smiles": "COC(=O)CCC(NC(=S)N/N=C/c1cccs1)C(=O)OC", "note": "(configuration not stated)", "TGI": "> 100 µM"},
      {"smiles": "O=c1/c(=C/c2ccccc2[N+](=O)[O-])sc2nnc(-c3cccnc3)n12", "TGI": "> 100 µM"},
      {"smiles": "COC(=O)/C=C(/C(=O)OC)C1(C)c2cc(C(=O)OC)c(C(=O)OC)c(N)c2C(=N)N1c1ccccc1", "note": "(configuration not stated)", "TGI": "45.6 µM"},
      {"smiles": "O=C1/C(=C\\c2ccccc2)CN(C(=O)CCN2CCCCC2)C/C1=C/c1ccccc1", "TGI": "4.51 µM"},
      {"smiles": "Cc1ccc(S(=O)(=O)OCC/C(=C\\[Si](C)(C)C)c2ccccc2)cc1", "TGI": "> 100 µM"},
      {"smiles": "CCc1ccccc1NC(=O)c1cccc([N+](=O)[O-])c1O", "TGI": "72.5 µM"},
      {"smiles": "CC1=C(C(=O)Nc2ccccc2)C(c2ccc(N(C)C)cc2)C(C(=O)Nc2ccccc2)=C(C)N1", "TGI": "> 100 µM"}
    ]},
    {"tested_on": "XF 498 CNS", "assay": "NCI anticancer screen, dose series, 48 h", "units": {"TGI": "µM"}, "values": [
      {"smiles": "O=C1[C@@H]2C(c3c(Cl)cccc3Cl)=NO[C@@H]2C(=O)N1c1ccc(Cc2ccc(N3C(=O)[C@H]4C(c5c(Cl)cccc5Cl)=NO[C@H]4C3=O)cc2)cc1", "TGI": "> 100"},
      {"smiles": "COC1N(C2CC(O)C(CO)O2)C(=O)NC(=O)C1(F)Br", "note": "(configuration not stated)", "TGI": 50},
      {"smiles": "COC(=O)C1C(C(=O)OC)C2C(=O)C3C(C(=O)OC)C(C(=O)OC)C3C(=O)C12", "note": "(configuration not stated)", "TGI": "> 100"},
      {"smiles": "O=C(NC12CC3CCC1CC(C3)C2)[C@@H]1CCCN1C(=O)OCc1ccccc1", "note": "(some centres not stated)", "TGI": "> 100"},
      {"smiles": "O=[N+]([O-])c1cccc(C2=NN(c3ccccc3)C3c4cc(Br)ccc4OCC23)c1", "note": "(configuration not stated)", "TGI": "> 100"},
      {"smiles": "C[C@]12Cc3cn[nH]c3C(=O)C1CC[C@@H]1C2CC[C@@]2(C)C1CC[C@@H]2O", "note": "(some centres not stated)", "TGI": "> 100"},
      {"smiles": "NNC(=O)C(=O)N/N=C1/CCCC1C(=O)CCC(=O)Nc1ccc(Cl)cc1", "note": "(configuration not stated)", "TGI": "> 100"},
      {"smiles": "COC(=O)CCC(NC(=S)N/N=C/c1cccs1)C(=O)OC", "note": "(configuration not stated)", "TGI": "> 100"},
      {"smiles": "O=c1/c(=C/c2ccccc2[N+](=O)[O-])sc2nnc(-c3cccnc3)n12", "TGI": "> 100"},
      {"smiles": "COC(=O)/C=C(/C(=O)OC)C1(C)c2cc(C(=O)OC)c(C(=O)OC)c(N)c2C(=N)N1c1ccccc1", "note": "(configuration not stated)", "TGI": 28.4},
      {"smiles": "O=C1/C(=C\\c2ccccc2)CN(C(=O)CCN2CCCCC2)C/C1=C/c1ccccc1", "TGI": 3.84},
      {"smiles": "Cc1ccc(S(=O)(=O)OCC/C(=C\\[Si](C)(C)C)c2ccccc2)cc1", "TGI": "> 100"},
      {"smiles": "CCc1ccccc1NC(=O)c1cccc([N+](=O)[O-])c1O", "TGI": 57.9},
      {"smiles": "CC1=C(C(=O)Nc2ccccc2)C(c2ccc(N(C)C)cc2)C(C(=O)Nc2ccccc2)=C(C)N1", "TGI": "> 100"}
    ]},
    {"tested_on": "SK-MEL-5 melanoma", "assay": "NCI anticancer screen, dose series, 48 h", "units": {"GI50": "µM"}, "values": [
      {"smiles": "O=C1[C@@H]2C(c3c(Cl)cccc3Cl)=NO[C@@H]2C(=O)N1c1ccc(Cc2ccc(N3C(=O)[C@H]4C(c5c(Cl)cccc5Cl)=NO[C@H]4C3=O)cc2)cc1", "TGI": "> 100 µM"},
      {"smiles": "COC1N(C2CC(O)C(CO)O2)C(=O)NC(=O)C1(F)Br", "note": "(configuration not stated)", "GI50": 38.2, "TGI": "50 µM and > 89.7 µM"},
      {"smiles": "O=[N+]([O-])c1cccc(C2=NN(c3ccccc3)C3c4cc(Br)ccc4OCC23)c1", "note": "(configuration not stated)", "TGI": "> 100 µM"},
      {"smiles": "C[C@]12Cc3cn[nH]c3C(=O)C1CC[C@@H]1C2CC[C@@]2(C)C1CC[C@@H]2O", "note": "(some centres not stated)", "TGI": "> 100 µM"},
      {"smiles": "NNC(=O)C(=O)N/N=C1/CCCC1C(=O)CCC(=O)Nc1ccc(Cl)cc1", "note": "(configuration not stated)", "TGI": "> 100 µM"},
      {"smiles": "COC(=O)CCC(NC(=S)N/N=C/c1cccs1)C(=O)OC", "note": "(configuration not stated)", "TGI": "> 100 µM"},
      {"smiles": "O=c1/c(=C/c2ccccc2[N+](=O)[O-])sc2nnc(-c3cccnc3)n12", "TGI": "> 100 µM"},
      {"smiles": "O=C1/C(=C\\c2ccccc2)CN(C(=O)CCN2CCCCC2)C/C1=C/c1ccccc1", "TGI": "3.3 µM"},
      {"smiles": "Cc1ccc(S(=O)(=O)OCC/C(=C\\[Si](C)(C)C)c2ccccc2)cc1", "TGI": "> 100 µM"},
      {"smiles": "CCc1ccccc1NC(=O)c1cccc([N+](=O)[O-])c1O", "TGI": "33.9 µM"},
      {"smiles": "CC1=C(C(=O)Nc2ccccc2)C(c2ccc(N(C)C)cc2)C(C(=O)Nc2ccccc2)=C(C)N1", "TGI": "7.98 µM"}
    ]},
    {"tested_on": "LOX IMVI melanoma", "assay": "NCI anticancer screen, dose series, 48 h", "units": {"GI50": "µM"}, "values": [
      {"smiles": "O=C1[C@@H]2C(c3c(Cl)cccc3Cl)=NO[C@@H]2C(=O)N1c1ccc(Cc2ccc(N3C(=O)[C@H]4C(c5c(Cl)cccc5Cl)=NO[C@H]4C3=O)cc2)cc1", "TGI": "> 100 µM"},
      {"smiles": "COC1N(C2CC(O)C(CO)O2)C(=O)NC(=O)C1(F)Br", "note": "(configuration not stated)", "GI50": 4.47, "TGI": "50 µM and > 100 µM"},
      {"smiles": "COC(=O)C1C(C(=O)OC)C2C(=O)C3C(C(=O)OC)C(C(=O)OC)C3C(=O)C12", "note": "(configuration not stated)", "TGI": "> 100 µM"},
      {"smiles": "O=C(NC12CC3CCC1CC(C3)C2)[C@@H]1CCCN1C(=O)OCc1ccccc1", "note": "(some centres not stated)", "TGI": "> 100 µM"},
      {"smiles": "O=[N+]([O-])c1cccc(C2=NN(c3ccccc3)C3c4cc(Br)ccc4OCC23)c1", "note": "(configuration not stated)", "TGI": "> 100 µM"},
      {"smiles": "C[C@]12Cc3cn[nH]c3C(=O)C1CC[C@@H]1C2CC[C@@]2(C)C1CC[C@@H]2O", "note": "(some centres not stated)", "TGI": "> 100 µM"},
      {"smiles": "COC(=O)CCC(NC(=S)N/N=C/c1cccs1)C(=O)OC", "note": "(configuration not stated)", "TGI": "> 100 µM"},
      {"smiles": "O=c1/c(=C/c2ccccc2[N+](=O)[O-])sc2nnc(-c3cccnc3)n12", "TGI": "> 100 µM"},
      {"smiles": "COC(=O)/C=C(/C(=O)OC)C1(C)c2cc(C(=O)OC)c(C(=O)OC)c(N)c2C(=N)N1c1ccccc1", "note": "(configuration not stated)", "TGI": "35 µM"},
      {"smiles": "O=C1/C(=C\\c2ccccc2)CN(C(=O)CCN2CCCCC2)C/C1=C/c1ccccc1", "TGI": "0.842 µM"},
      {"smiles": "Cc1ccc(S(=O)(=O)OCC/C(=C\\[Si](C)(C)C)c2ccccc2)cc1", "TGI": "> 100 µM"},
      {"smiles": "CCc1ccccc1NC(=O)c1cccc([N+](=O)[O-])c1O", "TGI": "55.6 µM"},
      {"smiles": "CC1=C(C(=O)Nc2ccccc2)C(c2ccc(N(C)C)cc2)C(C(=O)Nc2ccccc2)=C(C)N1", "TGI": "> 100 µM"}
    ]},
    {"tested_on": "KM20L2 colon", "assay": "NCI anticancer screen, dose series, 48 h", "units": {"TGI": "µM"}, "values": [
      {"smiles": "O=C1[C@@H]2C(c3c(Cl)cccc3Cl)=NO[C@@H]2C(=O)N1c1ccc(Cc2ccc(N3C(=O)[C@H]4C(c5c(Cl)cccc5Cl)=NO[C@H]4C3=O)cc2)cc1", "TGI": "> 100"},
      {"smiles": "COC1N(C2CC(O)C(CO)O2)C(=O)NC(=O)C1(F)Br", "note": "(configuration not stated)", "TGI": 50},
      {"smiles": "COC(=O)C1C(C(=O)OC)C2C(=O)C3C(C(=O)OC)C(C(=O)OC)C3C(=O)C12", "note": "(configuration not stated)", "TGI": "> 100"},
      {"smiles": "O=C(NC12CC3CCC1CC(C3)C2)[C@@H]1CCCN1C(=O)OCc1ccccc1", "note": "(some centres not stated)", "TGI": "> 100"},
      {"smiles": "O=[N+]([O-])c1cccc(C2=NN(c3ccccc3)C3c4cc(Br)ccc4OCC23)c1", "note": "(configuration not stated)", "TGI": "> 100"},
      {"smiles": "C[C@]12Cc3cn[nH]c3C(=O)C1CC[C@@H]1C2CC[C@@]2(C)C1CC[C@@H]2O", "note": "(some centres not stated)", "TGI": "> 100"},
      {"smiles": "NNC(=O)C(=O)N/N=C1/CCCC1C(=O)CCC(=O)Nc1ccc(Cl)cc1", "note": "(configuration not stated)", "TGI": "> 100"},
      {"smiles": "COC(=O)CCC(NC(=S)N/N=C/c1cccs1)C(=O)OC", "note": "(configuration not stated)", "TGI": "> 100"},
      {"smiles": "O=c1/c(=C/c2ccccc2[N+](=O)[O-])sc2nnc(-c3cccnc3)n12", "TGI": "> 100"},
      {"smiles": "COC(=O)/C=C(/C(=O)OC)C1(C)c2cc(C(=O)OC)c(C(=O)OC)c(N)c2C(=N)N1c1ccccc1", "note": "(configuration not stated)", "TGI": 34.8},
      {"smiles": "O=C1/C(=C\\c2ccccc2)CN(C(=O)CCN2CCCCC2)C/C1=C/c1ccccc1", "TGI": 2.97},
      {"smiles": "Cc1ccc(S(=O)(=O)OCC/C(=C\\[Si](C)(C)C)c2ccccc2)cc1", "TGI": "> 100"},
      {"smiles": "CCc1ccccc1NC(=O)c1cccc([N+](=O)[O-])c1O", "TGI": 93.3},
      {"smiles": "CC1=C(C(=O)Nc2ccccc2)C(c2ccc(N(C)C)cc2)C(C(=O)Nc2ccccc2)=C(C)N1", "TGI": 7.26}
    ]}
  ]
}
